pIC50: −log10 of the molar value.
Test system: Aβ42 production
Experiment: Quantification of Aβ peptide in culture of neurons from rat fetus brain (Aβ ELISA)
Assay type: cell-based
Details: Neuron, 72 h; rat primary neuronal culture (embryonic day 18 Wistar rat cerebral cortex); cultured three days after addition of compound; Aβ42 concentration in the medium by ELISA; read-out: Aβ42 production reducing effect IC50
Method: Quantification of Aβ Peptide in Culture of Neurons from Rat Fetus Brain
(1) Rat Primary Neuronal Culture
Primary neuronal cultures were prepared from the cerebral cortex of embryonic day 18 Wistar rats (Charles River Japan, Yokohama, Japan). Specifically, the embryos were aseptically removed from pregnant rats under ether anesthesia. The brain was isolated from the embryo and immersed in an ice-cold L-15 medium (such as Invitrogen Corp. Cat #11415-064, Carlsbad, Calif., USA, or SIGMA L1518). The cerebral cortex was collected from the isolated brain under a stereoscopic microscope. The cerebral cortex fragments collected were enzymatically treated in an enzyme solution containing 0.25% trypsin (Invitrogen Corp. Cat #15050-065, Carlsbad, Calif., USA) and 0.01% DNase (Sigma D5025, St. Louis, Mo., USA) at 37° C. for 30 minutes to disperse the cells. Here, the enzymatic reaction was stopped by adding inactivated horse serum to the solution. The enzymatically treated solution was centrifuged at 1,500 rpm for five minutes to remove the supernatant. 5 to 10 ml of a medium was added to the resulting cell mass. […]

NC1=N[C@@]2(c3cc(NC(=O)c4cnc(OCF)cn4)ccc3F)COC[C@@H](F)[C@H]2CS1 [Example 21, N-[3-((4aS,5S,8aS)-2-amino-5-fluoro-4,4a,5,6,8,8a-hexahydro-7-oxa-3-thia-1-azanaphthalen-8a-yl)-4-fluorophenyl]-5-fluoromethoxypyrazine-2-carboxamide] showed a pIC50 of 8.00.

Reference: US8198269B2, “Fused aminodihydrothiazine derivative” (Eisai R&D Management Co., Ltd., priority 2008, dated 2012)
